The record followed here is ChEMBL document CHEMBL4602649, “Identification of 6'-β-fluoro-homoaristeromycin as a potent inhibitor of chikungunya virus replication” (Eur J Med Chem, 2020).

One data set deals with Adenosylhomocysteinase (Homo sapiens, UniProt P23526). The experiment in a line: Inhibition of human placental SAH hydrolase expressed in Escherichia coli JM109 using SAH as substrate preincubated for 10 mins followed by SAH addition and measured after 20 mins by DNTB reagent-based spectrophotometric method.
Sequence of Adenosylhomocysteinase (P23526 whole entry): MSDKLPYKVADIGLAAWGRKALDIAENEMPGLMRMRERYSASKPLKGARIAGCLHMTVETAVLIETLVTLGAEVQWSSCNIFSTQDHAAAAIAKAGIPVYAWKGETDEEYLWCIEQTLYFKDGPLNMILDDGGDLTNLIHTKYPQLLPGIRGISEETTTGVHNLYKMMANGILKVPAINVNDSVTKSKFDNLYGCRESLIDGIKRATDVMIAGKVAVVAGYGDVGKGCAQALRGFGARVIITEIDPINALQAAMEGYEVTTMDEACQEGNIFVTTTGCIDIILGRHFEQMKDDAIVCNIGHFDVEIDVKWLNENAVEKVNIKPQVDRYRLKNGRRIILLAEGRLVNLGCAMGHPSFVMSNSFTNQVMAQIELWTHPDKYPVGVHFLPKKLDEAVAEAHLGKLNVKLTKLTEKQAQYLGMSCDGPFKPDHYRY
The subject of another data set is Chikungunya virus. The experiment in a line: Antiviral activity against CHIKV LS3 infected in African green monkey Vero E6 cells assessed as reduction in virus-induced cytopathic effect pretreated with compound followed by viral infection and measured at 96 hrs post-infection by MTS assay. In kind it is functional, organism-based. The note with it: LS3, Vero C1008. In general terms: Cytopathic effects are the visible damage that an infection or toxin causes in cultured cells.

In the next data set the test system is Vero C1008. Briefly: Cytotoxicity against African green monkey Vero E6 cells assessed as reduction in cell viability measured after 96 hrs by MTS assay. The class given is cell-based. Conditions: chlorocebus sabaeus, vero c1008, 96 h. A general note: Tetrazolium dyes change colour on reduction, which living cells bring about.
The test system of data set [1] is Middle East respiratory syndrome-related coronavirus. Briefly: Antiviral activity against MERS-CoV EMC/2012 infected in African green monkey Vero cells pretreated with compound followed by viral infection and measured at 72 hrs post-infection by MTS assay. In kind it is functional, organism-based.
For the next data set, the system named is Zika virus. The experiment in a line: Antiviral activity against ZIKV SL0612 infected in African green monkey Vero CCL81 cells pretreated with compound followed by viral infection and measured at 96 hrs post-infection by MTS assay. In kind it is functional, organism-based.
The test system of a further data set is SARS-CoV. The experiment in a line: Antiviral activity against SARS-CoV Frankfurt1 infected in African green monkey Vero E6 cells pretreated with compound followed by viral infection and measured at 72 hrs post-infection by MTS assay. The class given is functional, organism-based. Conditions: Severe acute respiratory syndrome-related coronavirus; Frankfurt 1; Vero C1008.

Data set [2] can be described thus: Selectivity index, ratio of CC50 for African green monkey Vero E6 cells to EC50 for antiviral activity against CHIKV-LS3 infected in African green monkey Vero E6 cells. In kind it is toxicity, Vero C1008. The note with it: read-out: Ratio CC50/EC50.

Each structure is given as a SMILES string. Activity calls are given as the source filed them. The calls are words filed in the database; no cut-off is given here.

Regarding `Nc1ncnc2c1ncn2[C@H]1[C@H](O)[C@H](O)[C@@H](CCO)C1(F)F`, on Adenosylhomocysteinase, the IC50 – broadly, the midpoint of a concentration-inhibition curve – was determined as 2.03 µM. The EC50 (as a rule, the midpoint of the concentration-response curve) in the data set with Chikungunya virus was over 100 µM. Further, the CC50 (usually the concentration that lowers cell viability or growth by half) with Vero C1008 is over 25 µM. The outcome (in data set [1]; in the data set with Zika virus; with SARS-CoV) was inactive.

Turning to `Nc1ncnc2c1ncn2[C@H]1[C@H](O)[C@H](O)[C@@H](CCO)[C@H]1F`, the half-maximal inhibitory concentration (IC50) against Adenosylhomocysteinase is 0.36 µM. The EC50 with Chikungunya virus was 0.12 µM. Moreover, the CC50 in the data set with Vero C1008 is over 250 µM. For the same molecule, the selectivity ratio in data set [2] was over 2080. For the same molecule, the result (in data set [1]; in the data set on Zika virus; in the data set with SARS-CoV) was inactive.

Take `Nc1ncnc2c1ncn2[C@H]1[C@H](O)[C@H](O)[C@@H](CO)C1(F)F`: in the data set with Chikungunya virus, the EC50 turned out to be 0.13 µM. In addition, the CC50 in the data set with Vero C1008 was over 1.25 µM. Moreover, the outcome (in data set [1]; with Zika virus; in the data set on SARS-CoV) was Active.

On to `CNc1ncnc2c1ncn2[C@H]1[C@H](O)[C@H](O)[C@@H](CCO)[C@H]1F`, for which, on Adenosylhomocysteinase, it took 0.37 µM to reach half-maximal inhibition (IC50). The EC50 with Chikungunya virus was over 100 µM. Also, the CC50 in the data set on Vero C1008 is over 100 µM. Also, the outcome (in data set [1]; in the data set with Zika virus; in the data set on SARS-CoV) was inactive.

With `Nc1ncnc2c1ncn2[C@H]1[C@H](O)[C@H](O)[C@@H](CO)[C@H]1F`, in the data set with Chikungunya virus, the EC50 is over 100 µM. The CC50 in the data set with Vero C1008 is over 100 µM. Further, the outcome (in data set [1]; with Zika virus; in the data set on SARS-CoV) was Active.

`OCC[C@@H]1[C@@H](O)[C@@H](O)[C@H](n2cnc3c(O)ncnc32)[C@@H]1F` registered a half-inhibitory concentration (IC50) on Adenosylhomocysteinase of over 100 µM. The EC50 with Chikungunya virus is over 100 µM. For the same molecule, the CC50 in the data set with Vero C1008 is over 100 µM. Also, the result (in data set [1]; with Zika virus; in the data set with SARS-CoV) was inactive.

On Adenosylhomocysteinase, `CNc1ncnc2c1ncn2[C@H]1[C@H](O)[C@H](O)[C@@H](CCO)C1(F)F` yielded an IC50 of 3.05 µM. For the same molecule, the EC50 with Chikungunya virus is over 100 µM. For the same molecule, in the data set on Vero C1008, the CC50 is over 100 µM. Besides, the outcome (in data set [1]; in the data set on Zika virus; with SARS-CoV) was inactive.
